Reference: US8158589B2, “Peptides with the capacity to bind to transforming growth factor β1 (TGF-β1)” (Proyecto Biomedicine Cima, S.L., priority 2003, dated 2012)
Ends that are not written are not given here.

Tests used:
TGF-β1 [1] = molecular target: T1, TGF-β1 (Rattus norvegicus, UniProt P17246); assay: Corneal fibrosis and haze after 1 N NaOH damage, topical eye drops, photographs analysed with ImageJ; format: in vivo, Long-Evans rats; conditions: fifth formulation eye drops, treated right eye vs control left eye
T1 construct: from tissue; host or cells: cornea of Long-Evans rats
T1 sequence (P17246 279-390 limits assumed): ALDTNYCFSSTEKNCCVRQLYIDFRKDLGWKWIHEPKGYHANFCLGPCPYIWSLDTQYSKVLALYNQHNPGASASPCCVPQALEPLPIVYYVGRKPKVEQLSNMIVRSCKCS
From the text: Male Long-Evans rats aged 10 weeks were used, divided into 5 groups: • Group 1: 12 rats, 6 treated with dexamethasone and 6 treated with mitomycin C • Group 2: 12 rats, 6 treated with p17 of the first formulation (see section 6.1.2.b) and 6 treated with p144 of the first formulation (see section 6.1.2.b) • Group 3: 12 rats, 6 treated with p17 of the second formulation (see section 6.1.2.b) and 6 treated with p144 of the second formulation (see section 6.1.2.b) • Group 4: 12 rats, 6 treated with p17 of the third formulation (see section 6.1.2.b) and 6 treated with p144 of the third formulation (see section 6.1.2.b) • Group 5: 12 rats, 6 treated with p17 of the fourth formulation (see section 6.1.2.b) and 6 treated with p144 of the fourth formulation (see section 6.1.2.b) • Group 6: 12 rats, 6 treated with p17 of the fifth formulation (see section 6.1.2.b) and 6 treated with p144 of the fifth formulation (see section 6.1.2.b)
To perform the damage in the cornea, the animals were anesthetized with isoflurane and a 5 mm Whatman paper disc impregnated in 1 N NaOH for 30 seconds was applied to them in the central part of the eye. After the damage, they were washed with abundant physiological saline serum and an antibiotic ointment was applied to them to prevent possible infections in the affected area.
After conducting several in vivo studies with the previously described groups of animals, it could be concluded that the chemical damage occurring after the application of NaOH for 30 seconds caused an excessive lesion for the study which was to be conducted, therefore it was decided to conduct new experiments reducing the time to 15 seconds.
It was randomly established that the left eye of each animal would act as a control and that the right eye would be the treated eye, such that the same animals acts as a control in addition to being treated. It must be pointed out that all the animals received antibiotic treatment in both eyes daily only during the first week of the study for the purposes of avoiding microbial keratitis.
Starting from 0.15% sodium hyaluronate (Hyabak 10 mL, Thea) without preservatives: • p144: 20 mg were dissolved in 5 ml of eye drops, 40 μl of saturated concentrated NaOH were incorporated, stirring and adding in portions of 5 μl. It was sonicated until solubilization. To adjust the pH, 500 μl of 1M Hepes were added, such that the pH changed from 10.5 to 7 • p144 control: 40 μl of saturated NaOH and 500 μl of 1 M HEPES (final concentration of HEPES 50 mM) • p17: 20 mg were dissolved in 5 ml of the eye drops, it was sonicated until complete solubilization and it was incorporated to the vial with a 10 ml syringe and a blue needle to perforate the filter of the contained (final concentration 2 mg/ml) • p17 control: non-manipulated eye drops • Note: The formulations were maintained at 4° C. throughout the study.
The administration of the treatment was initiated twenty-four hours after the damage. After that time a follow-up of the damage was performed, which consisted of taking photographs at days 0, 7, 14, 21, 28 and 35. To take the photographs the animals were anesthetized with isoflurane. Photographs were taken of both the control eye (left) and of the treated eye (right) with and without fluorescein. The photographs with fluorescein allowed to observe the evolution of the epithelial closure of the generated lesion, whereas the photographs without fluorescein show the evolution of the haze of the lesioned area. […]

TGF-β1 [2] = molecular target: T2, TGF-β1 (Mus musculus, UniProt P04202); assay: Bleomycin-induced pulmonary fibrosis, therapeutic treatment started ten days after bleomycin; format: in vivo, mice
T2 construct: from tissue; host or cells: liver of Balb/C mice (CCl4 model); lung of C57BL/6 mice (bleomycin model)
T2 sequence (P04202 279-390 limits assumed): as the sequence (P17246 279-390 limits assumed) above
Procedure: Female C57BL/6 mice (6-8 weeks of age) were obtained from Harlan SL (Barcelona, Spain) and maintained in accordance with the ethical committee of Universidad de Navarra (Spain) for the experimental use of animals. Lung injury was induced with 0.08 units/mouse of bleomycin sulfate (Sigma, Spain) diluted in 200 μl of phosphate buffered saline (PBS). Briefly, the suspension of bleomycin was instilled by pippeting into the nose of mice previously anesthetized with 2% isoflurane vapor. PBS was instilled in mice as a negative control for pulmonary fibrosis (PF), following the same procedures. Peptide treatment was started two days after bleomycin challenge and it was administered intraperitoneally in 500 μl of PBS on alternate days. Mice received high (75 μg/mouse) or low (25 μg/mouse) doses of P17, or the high dose (75 μg/mouse) of control peptide P301. Lungs were obtained 15 or 26 days after bleomycin administration to evaluate profibrogenic gene expression or histological damage, respectively. To study the therapeutic effect of P17 in the development of fibrosis, it was administered daily ten days after bleomycin challenge, once fibrosis was established. […]
Lungs were fixed by inflation with 4% paraformaldehyde overnight and dehydrated in 70% ethanol. […] Percentage of fibrosis in the lung was evaluated by light microscopy by three different qualified persons using a blinded system.

TGF-β1 [3] = molecular target: T3, TGF-β1 (Homo sapiens, UniProt P01137); design: purchased R&D Systems; host or cells: added to IMR-90 human lung fibroblasts; conditions: lung fibroblasts, Dotor et al. Cytokine 2007; cited from earlier work
Target sequence in this assay (P01137 279-390 limits assumed): as the sequence (P17246 279-390 limits assumed) above, with S75A counted along it

TGF-β1 [4] = molecular target: T3, TGF-β1; assay: Western Blot of p-Smad2, Smad2/3 and Smad7 in primary culture of rabbit corneal fibroblasts; format: cell-based; design: host or cells: added to a primary culture of rabbit corneal fibroblasts; conditions: primary culture, TGF-β1 and peptide
Procedure: Therefore, Western Blot and immunofluorescence studies were conducted to determine, from cells extracted from the in vivo studies, the signaling pathway used by the peptides administered topically. It should be emphasized that said studies were conducted on fibroblasts from rabbit cornea and not from rat cornea. This decision was made due to the difficulty entailed in isolating fibroblasts from rodent eyes.
Since the scientific literature repeatedly describes the TGF-β1 signaling pathways, the decision was made to go into depth in such pathways by means of the techniques described in the methodology section. Said pathways involve the study of the Smad protein family, specifically the study of the isoforms Smad2, 2/3 and 7.
To that end, protein extracts obtained from the primary culture of rabbit fibroblasts were treated with TGF-β1 at concentrations of 0, 3 and 5 ng/ml and, 50 and 200 μg/ml of peptide p17 and p144.
Target sequence in this assay (P01137 279-390 limits assumed, species assumed): as the sequence (P17246 279-390 limits assumed) above, with S75A counted along it

Q: For “KRIWFIPRSSWYERA [SEQ ID NO: 17, KRIWFIPRSSWYERA]”, which corneal haze (TGF-β1 [1]) is on record?
A: clear decrease

Q: What about the “epithelial closure (fluorescein)” value (TGF-β1 [1]) of the same sequence?
A: clear decrease

Q: What about the “lung fibrosis (Masson's Trichrome), established fibrosis” value (TGF-β1 [2]; 25 μg/mouse daily from day 10, day 26) of the same sequence?
A: No beneficial effect

Q: What about the “lung fibrosis (Masson's Trichrome), established fibrosis” value (TGF-β1 [2]; 75 μg/mouse daily from day 10, day 26, vs untreated mice) of the same sequence?
A: significant attenuation of fibrosis

Q: And the “Smad2 phosphorylation induced by TGF-β1” value (TGF-β1 [3])?
A: decreased

Q: What about the “expression of Smad 2/3” value (TGF-β1 [4]) of the same sequence?
A: not affected

Q: What about the “expression of Smad 7” value (TGF-β1 [4]) of the same sequence?
A: not modified
